Patent US5880076A, “Compositions comprising glycacarbamate and glycaurea compounds” (Lever Brothers Company, Division of Conopco, Inc., priority 1997, dated 1999)

Legend:
[1] = Viscosity Modification of Sodium Lauryl Sulfate prototype detergent compositions; format: physicochemical; conditions: for Appearance (viscosity) / Viscosity Increase: 15.0% sodium lauryl sulfate; for Viscosity Increase: 22° C.
Procedure: The prototype detergent compositions are as follows:
(§1) Detergent Compositions Comprising Sodium
(§2) Lauryl Sulfate and Glycacarbamate Compounds
N-Dodecyl D-Glucocarbamate
2.0-7.0% Foam Stabilizer/Thickener
2.0% Viscosity Cobuilder
(§3) Lauryl Sulfate and Glycaurea Compounds
(§4) The above formulations were prepared by admixing the above ingredients in listed order and heating the mixture to about 80° C. with rapid stirring. The mixture was then cooled to about 40° C., placed in a clear jar and stored at room temperature.
It is well known that the viscosity of a liquid composition comprision of anionic surfactant can be modified by the addition of inorganic salts, such as sodium chloride. However, in the absence of an organic modifier, high levels of salt may be necessary to achieve the required viscosity which may lead to problems of storage at cold temperature or even salting our certain ingrediets. In practice, however, the viscosity of a liquid compositionis modified by the simultaneous addition of thickener and small amounts of inorganic salt (viscosity cobuilder). The combined effect is greater than either one alone. The viscosity of the above prototype detergent compositions comprising various amounts of glycacarbamate/urea compound are as follows: […]

[2] = Clarity Enhancement of prototype detergent compositions; format: physicochemical; conditions: detergent formulation
Procedure: The formulations were placed in a clear jar and stored for 1 month. The prototype detergent compositions are as follows:
as §1, §2
N-Coconut D-Glucocarbamate
0.5-4.0% Foam Stabilizer/Thickener
as §3, §4
For a clear detergent formulation to be successful it must have good shelf life and should not become turbid or produce sedimentation upon standing.

[3] = Surface Tension Reduction; format: physicochemical; conditions: 40° C.
Excerpt: An important characteristic feature that surfactants have is the tendency for them to absorb at the water/air interface in an oriented manner, thereby altering the interfacial free energy of that surface. The surface free energy per unit area or surface tension (γ), is a measure of this work and may be considered as the minimum amount of work required to bring sufficient surfactant molecules to the surface.

[4] = Viscosity Enhancement/Foam Stabilization (Brookfield Digital Viscometer)
[5] = Critical Micelle Concentration (micelle formation); format: physicochemical; conditions: 40° C.
Excerpt: The critical micelle concentration (CMC) is defined as the concentration at which a surfactant forms micelles in aqueous solution. […] A necessary and sufficient condition for CMC formation and surface tension reduction is the presence of both hydrophilic and hydrophobic functional groups. The hydrophilic portion provides strong interaction between the surfactant at the interface and with the surrounding water phase. The hydrophobic portion provides spontaneous adsorption of the surfactant at the interface and strong interaction with the adjacent air phase. If any of these functions are not performed, then CMC formation and surface tension reduction will not occur. For significant surface activity, a properly balanced hydrophilic and hydrophobic character is essential.

[6] = Flow aids: water uptake and appearance of intimate admixtures; format: physicochemical; conditions: intimate admixtures with ODS, SCMOS, CP-5 or CP-7
Excerpt: It is known in the are that certain ingredients are hygroscopic in nature and liquify after exposure to moisture after a few days. […] Samples were removed periodically, weighed and returned to R. H. chamber. Percent water uptake was based on the amound of builder present. % H2 O Uptake=grams of water absorbed/grams of builder×100 Identical mixtures of ODS, SCMOS, CP-5 or CP-7 and methyl α-D-glucose-6-O-monolaurate (c12 Mgluc), dodecyl β-D-glucopyranoside (C12 Gluc), dodecyl β-D-maltoside (C12 Malt), D-glucose or D-sorbitol were also prepared and are used for comparison. When the comparative sugar surfactant of monosacchardie are used, percent water uptake was based on the amount of saccharide present. % H2 O Uptake=grams of water absorbed/grams of saccharide×100

[7] = Water Solubility and Krafft Point (0.1% solution in water, 40° C.); conditions: 40° C.
Excerpt: The temperature at which a surfactant forms micelles instead of precipitates is referred to as the Krafft point (Tk), and at or below this temperature the solubility of a surfactant becomes equal to its CMC (numerical value at which micelles are formed).

CCCCCCCCCCCCN(C[C@H](O)[C@@H](O)[C@H](O)[C@H](O)CO)C(N)=O [N-Dodecyl D-Glucourea]
Appearance (viscosity) ([1]; 2.0% thickener): Slightly Viscous
Viscosity Increase ([1]; 2.0% thickener): Yes
Appearance (viscosity) ([1]; 4.0% thickener): Viscous
Viscosity Increase ([1]; 4.0% thickener): Yes
Appearance (viscosity) ([1]; 7.0% thickener): Very Viscous
Viscosity Increase ([1]; 7.0% thickener): Yes
viscosity increase (in words) ([1]; compared with D-glucose): increases the viscosity of that composition more effectively than D-glucose
clarity (in words) [2]: clear without sedimentation
Surface tension reduction (γ) at 40° C. [3]: Yes
Surface tension reduction (γ) at 40° C. ([3]; listed as M): do not significantly reduce the surface tension of water
Foam Stability ([4]; 4.0% thickener): Yes
viscosity increase from normal viscosity ([4]; 4.0% thickener): 99-104 times
Viscosity (Centipoise) ([4]; 4.0% thickener, 22° C.): 2295 Centipoise
Foam Stability ([4]; 4.0% thickener, listed as N-dodecyl D-glucourea): stabilize foam
viscosity enhancement and foam stabilization (comparison in words) ([4]; compared with lauramide DEA, cocoamide MEA, Neodol 91-6 and D-glucose): enhance viscosity and stabilze foam compartively to lauramide diethanolamine (DEA), but better than cocoamide menoethanolamine (MEA), Neodol 91-6 (C9 -C11 alcohol ethoxylate with 6 moles of ethylene oxide) and D-glucose
CMC at 40° C. (micelle formation) [5]: Yes
CMC at 40° C. (micelle formation) ([5]; listed as M): do not form micelles
handling and flowing characteristics (in words) [6]: improved the handling and flowing characteristics
H2O Solubility at 40° C. [7]: Yes
Krafft point (Tk) [7]: Below Tk
H2O Solubility at 40° C. ([7]; listed as M): insoluble in water
